Data as given in PMC10828645 (Heliyon, 2024).
Read-outs that look alike come from different tables or passages of the source.

Experiments:
[1] = cited from earlier work
[2] = Ionized fraction at pH 7.4 calculated from pKa; conditions: for Ionized fraction fanion: pH 7.4, Eq. (6), from literature acidic pKa; for Ionized fraction fcation: pH 7.4, Eq. (5), from literature basic pKa
[3] = ref [1]; cited from earlier work
[4] = marketed drugs; ref [1],[7]; cited from earlier work
[5] = Equilibrium dialysis, unbound fraction in plasma; assay type: in vitro ADME, CD-1 mice; conditions: CD-1, mouse, pH 7.4
[6] = assay type: in vivo, CD-1 mice; conditions: CD-1, mouse, brain and plasma, intraperitoneal
[7] = Equilibrium dialysis, unbound fraction in brain homogenate; assay type: in vitro ADME, CD-1 mice; conditions: CD-1, mouse, brain homogenate (10 % w/v), pH 7.4
[8] = marketed drugs, external validation, ref [1],[7]

SMILES	fu,b [4]	Ionized fraction fcation [2]	Basic_pKa [3]	Kp,brain ([1]; mouse, in vivo)	Kp,uu,brain ([1]; mouse, in vivo)	further results
CCCC(C)(COC(N)=O)COC(=O)NC(C)C (stereo not shown) [Carisoprodol]	0.202					Kp,brain [1, 8]: 0.66; Kp,uu,brain [1, 8]: 0.34; Ionized fraction fanion [2]: 0.0003; Acidic_pKa [3]: 11.0
Cc1nc2n(c(=O)c1CCN1CCC(c3noc4cc(F)ccc34)CC1)CCCC2 [Risperidone]		0.9091	8.4			Kp,uu,brain [1, 8]: 0.26
C#CCN(C)[C@H](C)Cc1ccccc1 [Selegiline]	0.056	0.5573	7.5	3.70	1.30	
Cc1ncc2n1-c1ccc(Cl)cc1C(c1ccccc1F)=NC2 [Midazolam]	0.027					Kp,uu,brain [1, 8]: 0.14
Nc1nnc(-c2cccc(Cl)c2Cl)c(N)n1 [Lamotrigine]	0.220			1.10	0.64	
CCCC(C)C1(CC)C(=O)NC(=S)NC1=O (stereo not shown) [Thiopental]	0.146					Ionized fraction fanion [2]: 0.2847; Acidic_pKa [3]: 7.80
CNCCC(Oc1ccc(C(F)(F)F)cc1)c1ccccc1 (stereo not shown) [Fluoxetine]		0.9980				Kp,brain [1, 8]: 12.0; Kp,uu,brain [1, 8]: 0.89
CN1CCN(C2=Nc3cc(Cl)ccc3Nc3ccccc32)CC1 [Clozapine]	0.009	0.3339				Kp,brain [1, 8]: 4.10; Kp,uu,brain [1, 8]: 1.01
CN(C)CCCN1c2ccccc2Sc2ccc(Cl)cc21 [Chlorpromazine]		0.9901				Kp,brain [1, 8]: 23.0; Kp,uu,brain [1, 8]: 0.65
CCC(=O)O[C@](Cc1ccccc1)(c1ccccc1)[C@H](C)CN(C)C [Propoxyphene]	0.033	0.9844		2.90	0.85	
O=C1CC2(CCCC2)CC(=O)N1CCCCN1CCN(c2ncccn2)CC1 [Buspirone]		0.5573				
Fc1ccc([C@@H]2CCNC[C@H]2COc2ccc3c(c2)OCO3)cc1 [Paroxetine]	0.004	0.9987		3.30	0.86	
CN(C)CCC=C1c2ccccc2C=Cc2ccccc21 [Cyclobenzaprine]	0.007	0.9844	9.2	12.0	1.62	
C=C[C@H]1C[N@@]2CC[C@H]1C[C@@H]2[C@@H](O)c1ccnc2ccc(OC)cc12 [Quinidine]						fraction unbound at 5 h, 1 μM [5]: 0.286; Kp uu at 2 h [6]: 0.05
CCCC(C)(COC(N)=O)COC(N)=O [Meprobamate]	0.760					Kp,uu,brain [1, 8]: 0.42; Ionized fraction fanion [2]: 0.0001; Acidic_pKa [3]: 11.3
CCN(CC)CCNC(=O)c1cc(Cl)c(N)cc1OC [Metoclopramide]	0.310	0.9937		1.20	0.52	Ionized fraction fanion [2]: 0.0001
CN[C@H]1CC[C@@H](c2ccc(Cl)c(Cl)c2)c2ccccc21 [Sertraline]		0.9921	9.5			

SMILES	fu,b [4]	Ionized fraction fcation [2]	Basic_pKa [3]	Kp,brain ([1]; mouse, in vivo)	Kp,uu,brain ([1]; mouse, in vivo)	further results
Cc1ccc(-c2nc3ccc(C)cn3c2CC(=O)N(C)C)cc1 [Zolpidem]	0.200	0.2403	6.9	0.29	0.24	
CN(C)CCCC1(c2ccc(F)cc2)OCc2cc(C#N)ccc21 (stereo not shown) [Citalopram]	0.031	0.9937	9.6	5.10	0.68	
CCN1CCCC1CNC(=O)c1cc(S(N)(=O)=O)ccc1OC (stereo not shown) [Sulpiride]		0.9693	8.9	0.08	0.06	Ionized fraction fanion [2]: 0.0017; Acidic_pKa [3]: 10.2
CN1CC[C@]23c4c5ccc(O)c4O[C@H]2[C@@H](O)C=C[C@H]3[C@H]1C5 [Morphine]		0.8882				Ionized fraction fanion [2]: 0.0038
CNCCC=C1c2ccccc2CCc2ccccc21 [Nortriptyline]	0.005	0.9980	10.1	11.0	1.63	
OCCOCCN1CCN(C(c2ccccc2)c2ccc(Cl)cc2)CC1 (stereo not shown) [Hydroxyzine]	0.010	0.3339	7.1	7.70	1.51	
COc1ccc2c3c1O[C@H]1C(=O)CC[C@H]4[C@@H](C2)N(C)CC[C@]314 [Hydrocodone]	0.550	0.9264	8.5	2.10	1.96	
COCCCC/C(=N\OCCN)c1ccc(C(F)(F)F)cc1 [Fluvoxamine]		0.9901				
COC(=O)C(c1ccccc1)C1CCCCN1 (stereo not shown) [Methylphenidate]	0.220	0.9994	10.6	12.0	3.43	
CCOc1ccc(NC(C)=O)cc1 [Phenacetin]						fraction unbound at 5 h, 1 μM [7]: 0.442; fraction unbound at 5 h, 1 μM [5]: 0.701; Kp uu at 2 h [6]: 0.55
O=c1n(CCCN2CCN(c3cccc(Cl)c3)CC2)nc2ccccn12 [Trazodone]	0.047	0.3869	7.2		0.56	Kp,brain [1, 8]: 0.61
CC(C)NCC(O)COc1cccc2ccccc12 (stereo not shown) [Propranolol]						fraction unbound at 5 h, 1 μM [7]: 0.022; Kp uu at 2 h [6]: 3.08
CC(=O)CC(c1ccccc1)c1c(O)c2ccccc2oc1=O (stereo not shown) [Warfarin]						fraction unbound at 5 h, 1 μM [7]: 0.281; fraction unbound at 5 h, 1 μM [5]: 0.097; Kp uu at 2 h [6]: 0.19
O=C1NC(=O)C(c2ccccc2)(c2ccccc2)N1 [Phenytoin]						Kp,brain [1, 8]: 0.63; Kp,uu,brain [1, 8]: 0.28; Ionized fraction fanion [2]: 0.1118; Acidic_pKa [3]: 8.30
O=C(CCCN1CCC(O)(c2ccc(Cl)cc2)CC1)c1ccc(F)cc1 [Haloperidol]	0.007	0.8882				Kp,brain [1, 8]: 13.0; Kp,uu,brain [1, 8]: 1.06
NC(=O)N1c2ccccc2C=Cc2ccccc21 [Carbamazepine]				0.76	0.27	Ionized fraction fanion [2]: 0.0003; Acidic_pKa [3]: 10.9
COc1ccc(C(CN(C)C)C2(O)CCCCC2)cc1 (stereo not shown) [Venlafaxine]	0.210	0.9876	9.3			Kp,brain [1, 8]: 4.20; Kp,uu,brain [1, 8]: 0.98
